These results are taken from patent US11326165B1, “Methods and compositions for modulating splicing” (SKYHAWK THERAPEUTICS, INC., priority 2017, dated 2022).

In data set [1] the test system is A673 cells. As to the kind of experiment: Cell viability and proliferation, A673 cells (crystal violet). Type of data set: cell-based. To be noted: cell proliferation IC50 in NHDF cells over A673 cells, 72 h. On the procedure: Small molecule splicing modulators were tested in a dose-response assay using A673 cells and NHDF cells.
A673 cells or NHDF cells were first plated in 96-well plastic tissue culture plates (10,000 cells per well). The cells were treated with vehicle alone (DMSO), or increasing concentrations of SMSM compounds for 72 h. Following treatment, cell proliferation was determined using a crystal violet assay. The relative cell proliferation at each concentration was determined.

Data set [2] is described as follows: Maximum tolerable dose study (survival, body weight). Type of data set: in vivo. The note with it: mice. On the procedure:
Survival of mice after administration of SMSMs after 10 or 11 days was assessed.
Tolerance of the drug treatments was determined by measuring the weight of the mice during the period of drug administration. Body weight was measured prior to tumor inoculation and prior to the treatment administration and then daily. The changes in the final weight of the mice for the SMSM treatments were determined.

In data set [3] the test system is A673 xenografts. The data set is described as follows: A673 xenografts in nude mice, tumor growth inhibition. In kind it is in vivo. To be noted: A673 xenograft (FIGS. 14A-C). On the procedure:
Dose range and time course studies comparing anti-neoplastic effects of SMSM−167 and SMSM−151 against vehicle were conducted.
Female NCrNu mice were used. Age range of enrolment was 7-10 weeks. A total of 75 animals were for the studies.
The A673 tumor cell line was maintained in vitro as a monolayer culture. […] The cells growing in an exponential growth phase were harvested and counted for tumor inoculation.
Each mouse were inoculated into a right flank with the single cell suspension of 95% viable tumor cells (5×10^6 cells/mouse) in serum-free RPMI 1640 Media for tumor development. Treatments were administered when mean tumor size reached approximately 75 mm^3.
Before commencement of treatment, all animals were weighed and assigned to treatment groups using a randomization procedure. Mice were randomized into groups based upon their tumor sizes to ensure that each group had approximately the same mean tumor size and range of tumor size.
After inoculation, the animals were checked daily for morbidity and mortality. At the time of routine monitoring, the animals were checked for any effects of tumor growth on normal behavior such as mobility, food and water consumption, body weight gain/loss, eye/hair matting and any other abnormal effects. Deaths and observed clinical signs were recorded.
Body weight were measured prior to tumor inoculation and prior to the treatment administration and then daily. Tumor size were measured 2-3 times per week in two dimensions using a caliper, and the volume were expressed in mm^3 using the formula: V=0.5×a×b^2 where a and b are the long and short diameters of the tumor, respectively.
(§1) Studies were terminated when the tumor size in the vehicle treated group reached 2,000 mm^3. Each mouse was bled at 2 hrs after the last dose and at least 50 μl of plasma were collected from each mouse. All of the collected plasma samples and retainer dosing solutions for each dose level were used for bioanalytical measurements. All tumors were also collected and weighed. One necrosis-free tumor fragment of approximately 50 mg was taken from each tumor and flash-frozen for RNA isolation. The remaining tumor was flash frozen for PK analysis.
Studies were performed to assess the effects of in vivo SMSM treatment on glioblastoma, breast, pancreatic, prostate, melanoma, lymphoma and Ewing sarcoma tumors. Studies were also performed to assess the effects of in vivo SMSM treatment on mRNA levels. Immunocompromised nude mice with pre-existing glioblastoma, breast, pancreatic, prostate, melanoma, lymphoma and Ewing sarcoma xenografts were treated with vehicle or SMSMs. Tumor tissues from subcutaneous xenografts were broken into a powder using a BioPulverizer (Biospec Products, Inc.). After SMSM treatment, mRNA was isolated from the xenografts and was analyzed by qRT-PCR.
as §1, with “Tumor size was measured 2 times per week in two dimensions using a caliper. Studies” for “Studies”, “plasma was” for “plasma were”
The effects of in vivo SMSM treatments on pre-existing subcutaneous glioblastoma, breast, pancreatic, prostate, melanoma, lymphoma and Ewing sarcoma xenografts were assessed. For these in vivo experiments, 1×10^6Raji, A375, A673, MDA-MB-231, BxPC-3, PC-3 or U87 (cells re-suspended in 100 μl PBS were subcutaneously injected into the flanks of nude mice. When the tumor reached approximately 100 mm^3 (volume=(¾)(π)(length/2)(width/2)^2), the treatments indicated in the tables below were initiated. […]

The test system of data set [4] is A-673 cells. The data set is described as follows: A-673 cell viability. To be noted: Homo sapiens, A673. In kind it is cell-based. On the procedure:
FIG. 9A depicts a graph of viable A-673 cells when incubated with the indicated concentrations of an SMSM.

Data set [5] relates to FoxM1 A mRNA. The data set is described as follows: FoxM1 splicing in cells: FoxM1 A mRNA increase (exon excluded). In kind it is cell-based. To be noted: read-out: Splice EC50 (nM) FoxM1 A mRNA increase (exon excluded). On the procedure:
(§2) FIG. 7 depicts a graph of relative transcript levels of FOXM1 isoform A (represses cancer) and FOXM1 isoform B (promotes cancer) in A-673 cells incubated with the indicated concentrations of an SMSM.

Data set [6] deals with FoxM1 BC mRNA. As to the kind of experiment: FoxM1 splicing in cells: FoxM1 BC mRNA decrease (exon included). The note with it: read-out: Splice IC50 (nM) FoxM1 BC mRNA decrease (exon included). Type of data set: cell-based. On the procedure: as §2
Data set [7] deals with IKBKAP. As to the kind of experiment: IKBKAP splicing assay (IKBKAP^FL and IKBKAP^Δ20 mRNA, qPCR). Type of data set: cell-based. The note with it: 24 hours. On the procedure:
Various cells lines were treated with the SMSMs described herein. RNA was then isolated, cDNA synthesized, qPCR performed and the levels of IKBKAP targets of the SMSMs were detemined.
On the day of the experiment, a 96-well plate was seeded with the cell lines of interest. The cells were diluted with full growth media to a concentration of 2.0×10^5 cells/mL and 100 μL of cells were added to each well (20,000 cells per well). The cells were treated with a compound immediately after plating.
The compounds were then added to the cell plate using the HP compound dispenser. In the initial experiment, atop concentration of 10 μM and an 8 point 4-fold dilution scheme was used. […]
The qPCR was performed using a QuantStudio 6 instrument (ThermoFisher) and the following cycling conditions and according to the tables below. All samples and standards were analyzed in triplicate. […]
The determined IKBKAP^FL and IKBKAP^Δ20 isoform quantities were then used to determine the IKBKAP^FL: IKBKAP^Δ20 ratio at increasing SMSM compound concentrations. The PPIA quantities were used in the normalization to account of cell proliferation effects of the compounds.
An assay to measure the IKBKAP^FL mRNA and IKBKAP^Δ20 mRNA simultaneously in cell wells was performed. The RNA values were measured relative to DMSO control and also included a housekeeping gene, PPIA to ensure data was consistent. […]
(In qPCR the cycle at which signal appears reflects the starting amount.)

Molecules are shown by their SMILES.

Consider `CN(c1ccc(-c2cc(F)c(-c3cn[nH]c3)cc2O)nn1)[C@H]1C[C@]2(C)CC[C@](C)(C1)N2` [compound 167, 2-(6-(((1R,3s,5S)-1,5-dimethyl-8-azabicyclo[3.2.1]octan-3-yl)(methyl)amino)pyridazin-3-yl)-4-fluoro-5-(1H-pyrazol-4-yl)phenol], for which the “Ratio NHDF/A673 IC50” value in data set [1] is >2,500. In addition, the Outcome entry is “All survived” in data set [2] (IP, 0.1 mg/kg, BIDx12); “All survived” in data set [2] (IP, 0.3 mg/kg, BIDx12); “All survived” in data set [2] (IP, 1 mg/kg, QDx12); “All survived” in data set [2] (PO, 5 mg/kg, QDx12). In addition, the “TGI(%)” value in data set [3] (5 mg/kg BID PO, Day 7) is 65.56%; in data set [3] (5 mg/kg BID PO, Day 11), 56.92%; in data set [3] (5 mg/kg BID PO, Day 14) it was 55.14%; in data set [3] (5 mg/kg BID PO, Day 18), 59.68%; in data set [3] (7.5 mg/kg BID PO, Day 7), 59.45%; in data set [3] (7.5 mg/kg BID PO, Day 11), 64.75%. Also, the “TGI(%)” value in data set [3] (7.5 mg/kg BID PO, Day 14) was 64.43%; in data set [3] (7.5 mg/kg BID PO, Day 18) it was 72.80%; in data set [3] (10 mg/kg QD PO, Day 7), −32.72%; in data set [3] (10 mg/kg QD PO, Day 11), 3.85%; in data set [3] (10 mg/kg QD PO, Day 14) it was −2.13%; in data set [3] (10 mg/kg QD PO, Day 18), 41.77%.
`Oc1cc(C2C=NN=N2)ccc1-c1ccc(O[C@@H]2C[C@H]3CC[C@@H](C2)N3)nn1` (stereo partly drawn) [compound 253, 2-(6-(((1R,3s,5S)-8-azabicyclo[3.2.1]octan-3-yl)oxy)pyridazin-3-yl)-5-(1H-1,2,3-triazol-4-yl)phenol]: the IC50 in data set [4] lay within 501 to 1000 nM; in data set [6], 251 to 500 nM. The EC50 in data set [5] lay within 251 to 500 nM.
Regarding `Oc1cc(-c2cn[nH]c2)ccc1-c1ccc(O[C@@H]2C[C@H]3CCC[C@@H](C2)N3)nn1` [compound 276, 2-(6-(((1R,3s,5S)-9-azabicyclo[3.3.1]nonan-3-yl)oxy)pyridazin-3-yl)-5-(1H-pyrazol-4-yl)phenol], the IC50 in data set [4] was in the range of 101 to 250 nM.
For the compound `Oc1cc(-c2cn[nH]c2)ccc1-c1ccc(O[C@H]2C[C@H]3CCC[C@@H](C2)N3)nn1` [compound 277, 2-(6-(((1R,3r,5S)-9-azabicyclo[3.3.1]nonan-3-yl)oxy)pyridazin-3-yl)-5-(1H-pyrazol-4-yl)phenol], the IC50 in data set [4] and in data set [6] was above 1000 nM each time. Besides, the EC50 in data set [5] was above 1000 nM.
For `Oc1cc(-c2cn[nH]c2)c(F)cc1-c1ccc(O[C@@H]2C[C@H]3CCC[C@@H](C2)N3)nn1` [compound 278, 2-(6-(((1R,3s,5S)-9-azabicyclo[3.3.1]nonan-3-yl)oxy)pyridazin-3-yl)-4-fluoro-5-(1H-pyrazol-4-yl)phenol], the EC50 in data set [7] (IKBKAP^FL mRNA increase) fell in the range of 101 to 350 nM. The compound further came in with an IC50 in data set [7] (IKBKAP^Δ20 mRNA decrease) below 200 nM.

Broadly, the IC50 is the midpoint of a concentration-inhibition curve. What is called EC50 is the concentration that produces a half-maximal response.
